Tests used:
HIV-integrase = target: T1, HIV-integrase (Human immunodeficiency virus type 1 group M subtype B, UniProt P12497); test: HIV-Integrase Inhibition Activity (SPA strand transfer assay); format: biochemical; conditions: recombinant integrase, biotin labeled substrate DNA on SPA beads, P33 labeled target DNA; read-out: Activity (IC50 class, HIV-integrase inhibition)
T1 construct: Recombinant integrase (0.26 ng) was incubated with the beads
Protocol: HIV-Integrase Inhibition Activity. To evaluate in-vitro activity against HIV-integrase, 5 pmole of biotin labeled substrate DNA was bound to 100 μg of Streptavidin coated PVT SPA beads (Amersham Pharmacia Biotech). Recombinant integrase (0.26 ng) was incubated with the beads for 90 min at 37° C. Unbound enzyme was removed by washing the complex followed by addition of inhibitors and 0.1 fmol of P33 labeled target DNA. The reaction was stopped by adding EDTA to a final concentration of 10 mM. Samples were counted in TopCountNXT (Packard) and the CPM was used as a measure of integration. The reaction condition was as described in A. Engelman and R. Craigie, J. Virol. 69, 5908-5911 (1995). The sequences of substrate and target DNA were described in Nucleic Acid Research 22,1121-1122 (1994). Activity equal to A refers to a compound having IC50=0.005 to 0.010 μM while B and C denote compounds having IC50=0.010 to 0.030 μM and IC50>0.030 μM respectively.

Compound | IC50 (HIV-integrase) | melting point
CNC(=O)c1cc(F)ccc1CNC(=O)c1nc2n(c(=O)c1O)CCN2C(C)C [Example 6, N-(4-Fluoro-2-(methylcarbamoyl)benzyl)-6-hydroxy-1-isopropyl-5-oxo-1,2,3,5-tetrahydroimidazo[1,2-a]pyrimidine-7-carboxamide] | 0.01 to 0.03 µM | 205 °C (dec.)
CN(C)S(=O)(=O)c1cc(F)ccc1CNC(=O)c1nc2n(c(=O)c1O)CCN2c1ccccc1 [Example 26, N-(4-Fluoro-2-(N,N-dimethylsulfamoyl)benzyl)-6-hydroxy-5-oxo-1-phenyl-1,2,3,5-tetrahydroimidazo[1,2-a]pyrimidine-7-carboxamide] | 0.01 to 0.03 µM | 
O=C(NCc1ccc(F)cc1-n1cncn1)c1nc2n(c(=O)c1O)CCN2CCO [Example 31, N-(4-Fluoro-2-(1H-1,2,4-triazol-1-yl)benzyl)-6-hydroxy-(2-hydroxyethyl)-5-oxo-1,2,3,5-tetrahydroimidazo[1,2-a]pyrimidine-7-carboxamide] | 0.01 to 0.03 µM | 220 to 222 °C
CCCCN1CCn2c1nc(C(=O)NCc1ccc(F)cc1-n1cncn1)c(O)c2=O [Example 41] | 0.01 to 0.03 µM | 
COCCN1CCn2c1nc(C(=O)NCc1ccc(F)cc1-n1cnc(C)n1)c(O)c2=O [Example 39] | > 0.03 µM | 
CCCCN1CCn2c1nc(C(=O)NCc1ccc(F)cc1)c(O)c2=O [Example 11, N-(4-Fluorobenzyl)-1-butyl-6-hydroxy-5-oxo-1,2,3,5-tetrahydroimidazo[1,2-a]pyrimidine-7-carboxamide] | 0.005 to 0.01 µM | 
Cc1cc(CNC(=O)c2nc3n(c(=O)c2O)CCN3C2CCCCC2)ccc1F [Example 33] | 0.005 to 0.01 µM | 
Cc1cc(CNC(=O)c2nc3n(c(=O)c2O)CCN3c2ccccc2)ccc1F [Example 21, N-(4-Fluoro-3-methylbenzyl)-6-hydroxy-5-oxo-1-phenyl-1,2,3,5-tetrahydroimidazo[1,2-a]pyrimidine-7-carboxamide] | 0.005 to 0.01 µM | 
Cc1ncnn1-c1cc(F)ccc1CNC(=O)c1nc2n(c(=O)c1O)CCN2c1ccccc1 [Example 25, N-(4-Fluoro-2-(5-methyl-1H-1,2,4-triazol-1-yl)benzyl)-6-hydroxy-5-oxo-1-phenyl-1,2,3,5-tetrahydroimidazo[1,2-a]pyrimidine-7-carboxamide] | 0.01 to 0.03 µM | 
CCCCN1CCn2c1nc(C(=O)NCc1ccc(F)c(C)c1)c(O)c2=O [Example 12, N-(4-Fluoro-3-methylbenzyl)-1-butyl-6-hydroxy-5-oxo-1,2,3,5-tetrahydroimidazo[1,2-a]pyrimidine-7-carboxamide] | 0.01 to 0.03 µM | 
O=C(NCc1ccc(F)cc1)c1nc2n(c(=O)c1O)CCN2C1CCCCC1 [Example 32] | 0.005 to 0.01 µM | 
CNC(=O)c1cc(F)ccc1CNC(=O)c1nc2n(c(=O)c1O)CCN2C [Example 3, N-(4-Fluoro-2-(methylcarbamoyl)benzyl)-6-hydroxy-1-methyl-5-oxo-1,2,3,5-tetrahydroimidazo[1,2-a]pyrimidine-7-carboxamide] | 0.01 to 0.03 µM | 
CC(C)N1CCn2c1nc(C(=O)NCc1ccc(F)cc1-n1cncn1)c(O)c2=O [Example 7, N-(4-Fluoro-2-(1H-1,2,4-triazol-1-yl)benzyl)-6-hydroxy-1-isopropyl-5-oxo-1,2,3,5-tetrahydroimidazo[1,2-a]pyrimidine-7-carboxamide] | 0.01 to 0.03 µM | 
Cc1ncnn1-c1cc(F)ccc1CNC(=O)c1nc2n(c(=O)c1O)CCN2C(C)C [Example 10, N-(4-Fluoro-2-(5-methyl-1H-1,2,4-triazol-1-yl)benzyl)-6-hydroxy-1-isopropyl-5-oxo-1,2,3,5-tetrahydroimidazo[1,2-a]pyrimidine-7-carboxamide] | > 0.03 µM | 212 °C
CCCCN1CCn2c1nc(C(=O)NCc1ccc(F)cc1-n1cnc(C)n1)c(O)c2=O [Example 15, N-(4-Fluoro-2-(3-methyl-1H-1,2,4-triazol-1-yl)benzyl)-1-butyl-6-hydroxy-5-oxo-1,2,3,5-tetrahydroimidazo[1,2-a]pyrimidine-7-carboxamide] | 0.005 to 0.01 µM | 214 °C
Cc1cc(CNC(=O)c2nc3n(c(=O)c2O)CCN3C(C)C)ccc1F [Example 5, N-(4-Fluoro-3-methylbenzyl)-6-hydroxy-1-isopropyl-5-oxo-1,2,3,5-tetrahydroimidazo[1,2-a]pyrimidine-7-carboxamide] | 0.01 to 0.03 µM | 
O=C(NCc1ccc(F)cc1)c1nc2n(c(=O)c1O)CCN2CCO [Example 30, N-(4-Fluorobenzyl)-6-hydroxy-1-(2-hydroxyethyl)-5-oxo-1,2,3,5-tetrahydroimidazo[1,2-a]pyrimidine-7-carboxamide] | 0.01 to 0.03 µM | 203 °C
O=C(NCc1ccc(F)cc1N1CCC1=O)c1nc2n(c(=O)c1O)CCN2c1ccccc1 [Example 28, N-(4-Fluoro-2-(2-oxoazetidin-1-yl)benzyl)-6-hydroxy-5-oxo-1-phenyl-1,2,3,5-tetrahydroimidazo[1,2-a]pyrimidine-7-carboxamide] | 0.005 to 0.01 µM | 

Compound | IC50 (HIV-integrase) | melting point
CN1CCn2c1nc(C(=O)NCc1ccc(F)cc1)c(O)c2=O [Example 1, N-(4Fluorobenzyl)-6-hydroxy-1-methyl-5-oxo-1,2,3,5-tetrahydroimidazo[1,2-a]pyrimidine-7-carboxamide] | 0.01 to 0.03 µM | 212 °C
O=C(NCc1ccc(F)cc1-n1cncn1)c1nc2n(c(=O)c1O)CCN2c1ccccc1 [Example 23, N-(4-Fluoro-2-(1H-1,2,4-triazol-1-yl)benzyl)-6-hydroxy-5-oxo-1-phenyl-1,2,3,5-tetrahydroimidazo[1,2-a]pyrimidine-7-carboxamide] | 0.005 to 0.01 µM | 
CC(C)N1CCn2c1nc(C(=O)NCc1ccc(F)cc1)c(O)c2=O [Example 4, N-(4-Fluorobenzyl)-6-hydroxy-1-isopropyl-5-oxo-1,2,3,5-tetrahydroimidazo[1,2-a]pyrimidine-7-carboxamide] | 0.01 to 0.03 µM | 
Cc1ncn(-c2cc(F)ccc2CNC(=O)c2nc3n(c(=O)c2O)CCN3c2ccccc2)n1 [Example 24, N-(4-Fluoro-2-(3-methyl-1H-1,2,4-triazol-1-yl)benzyl)-6-hydroxy-5-oxo-1-phenyl-1,2,3,5-tetrahydroimidazo[1,2-a]pyrimidine-7-carboxamide] | 0.005 to 0.01 µM | 
COCCN1CCn2c1nc(C(=O)NCc1ccc(F)cc1S(=O)(=O)N(C)C)c(O)c2=O [Example 38] | > 0.03 µM | 
Cc1cc(CNC(=O)c2nc3n(c(=O)c2O)CCN3Cc2ccccc2)ccc1F [Example 17, N-(4-Fluoro-3-methylbenzyl)-1-benzyl-6-hydroxy-5-oxo-1,2,3,5-tetrahydroimidazo[1,2-a]pyrimidine-7-carboxamide] | 0.01 to 0.03 µM | 
O=C(NCc1ccc(F)cc1-n1cncn1)c1nc2n(c(=O)c1O)CCN2C1CCCCC1 [Example 34] | 0.005 to 0.01 µM | 
CC(C)N1CCn2c1nc(C(=O)NCc1ccc(F)cc1S(=O)(=O)N(C)C)c(O)c2=O [Example 8, N-(4-Fluoro-2-(N,N-dimethylsulfamoyl)benzyl)-6-hydroxy-1-isopropyl-5-oxo-1,2,3,5-tetrahydroimidazo[1,2-a]pyrimidine-7-carboxamide] | 0.005 to 0.01 µM | 
COCCN1CCn2c1nc(C(=O)NCc1ccc(F)cc1-n1cncn1)c(O)c2=O [Example 37] | 0.01 to 0.03 µM | 
O=C(NCc1ccc(F)cc1)c1nc2n(c(=O)c1O)CCN2c1ccccc1 [Example 20, N-(4-Fluorobenzyl)-6-hydroxy-5-oxo-1-phenyl-1,2,3,5-tetrahydroimidazo[1,2-a]pyrimidine-7-carboxamide] | 0.005 to 0.01 µM | 
CN(C)S(=O)(=O)c1cc(F)ccc1CNC(=O)c1nc2n(c(=O)c1O)CCN2C1CCCCC1 [Example 35] | 0.01 to 0.03 µM | 
CCCCN1CCn2c1nc(C(=O)NCc1ccc(F)cc1C(=O)NC)c(O)c2=O [Example 13, N-(4-Fluoro-2-(methylcarbamoyl)benzyl)-1-butyl-6-hydroxy-5-oxo-1,2,3,5-tetrahydroimidazo[1,2-a]pyrimidine-7-carboxamide] | 0.01 to 0.03 µM | 175 to 177 °C
CS(=O)(=O)c1cc(F)ccc1CNC(=O)c1nc2n(c(=O)c1O)CCN2c1ccccc1 [Example 40] | 0.005 to 0.01 µM | 
CCCCN1CCn2c1nc(C(=O)NCc1ccc(F)cc1S(=O)(=O)N(C)C)c(O)c2=O [Example 14, N-(4-Fluoro-2-(N,N-dimethylsulfamoyl)benzyl)-1-butyl-6-hydroxy-5-oxo-1,2,3,5-tetrahydroimidazo[1,2-a]pyrimidine-7-carboxamide] | 0.01 to 0.03 µM | 
CNC(=O)c1cc(F)ccc1CNC(=O)c1nc2n(c(=O)c1O)CCN2c1ccccc1 [Example 22, N-(4-Fluoro-2-(methylcarbamoyl)benzyl)-6-hydroxy-5-oxo-1-phenyl-1,2,3,5-tetrahydroimidazo[1,2-a]pyrimidine-7-carboxamide] | 0.01 to 0.03 µM | 
Cc1ncn(-c2cc(F)ccc2CNC(=O)c2nc3n(c(=O)c2O)CCN3C(C)C)n1 [Example 9, N-(4-Fluoro-2-(3-methyl-1H-1,2,4-triazol-1-yl)benzyl)-6-hydroxy-1-isopropyl-5-oxo-1,2,3,5-tetrahydroimidazo[1,2-a]pyrimidine-7-carboxamide] | 0.01 to 0.03 µM | 
CNC(=O)c1cc(F)ccc1CNC(=O)c1nc2n(c(=O)c1O)CCN2CCOC [Example 36] | 0.01 to 0.03 µM | 
O=C(NCc1ccc(F)cc1N1CCCC1=O)c1nc2n(c(=O)c1O)CCN2c1ccccc1 [Example 27, N-(4-Fluoro-2-(2-oxopyrrolidin-1-yl)benzyl)-6-hydroxy-5-oxo-1-phenyl-1,2,3,5-tetrahydroimidazo[1,2-a]pyrimidine-7-carboxamide] | 0.01 to 0.03 µM | 
